Results published in US20050208496A1, “Methods of testing for bronchial asthma or chronic obstructive pulmonary disease” (Genox Research, Inc., priority 2002, published 2005).
Like-named read-outs stand apart in the source and are kept apart here.

Test system: respiratory epithelial cells
Details: for expression level change, AQP5 (Probe ID 91275_at) / expression level change, ESTs AI758223 (Probe ID 76769_at) / expression level change, ESTs AI927079 (Probe ID 88716_at) / expression level change, MGC14128 (Probe ID 89360_at) / expression level change, PADI1 (Probe ID 81926_at) / expression level change, ST6GalNAcI (Probe ID 89741_at) / expression level change, CNTN1 (Probe ID 88239_i_at) / expression level change, DKFZP434I1735 (Probe ID 77516_r_at) / expression level change, FLJ10718 (Probe ID 69750_at) / expression level change, LGALS1 (Probe ID 80667_f_at) / expression level change, MGC14128 (Probe ID 86024_at): IL-13 stimulation
[1] = IL-13 vs no stimulation, lot 1 Day 3 AI
[2] = IL-13 vs no stimulation, lot 1 Day 3 IMM

IL-13: human IL-13 (Peprotech, Inc.) added to the medium at 50 ng/mL to stimulate respiratory epithelial cells
SLC21A12 (87860_s_at) expression change upon IL-13 stimulation (HG-U95E, lot 2, Day 7): 2.8 | rab11-FIP1 (89338_at) expression change upon IL-13 stimulation (HG-U95E, lot 2, Day 7): 14.6 | AA199856 (72960_s_at) expression change upon IL-13 stimulation (HG-U95E, lot 2, Day 7, AI): 5.5 | AA806114 (80826_at) expression change upon IL-13 stimulation (HG-U95E, lot 2, Day 7, AI): 2 | AI803648 (89255_at) expression change upon IL-13 stimulation (HG-U95E, lot 2, Day 7, AI): 2.4 | AI859144, KIAA1127 (77546_at) expression change upon IL-13 stimulation (HG-U95E, lot 2, Day 7, AI): 9.8 | AI984061 (89834_at) expression change upon IL-13 stimulation (HG-U95E, lot 2, Day 7, AI): 3.1 | AW024819 (72867_at) expression change upon IL-13 stimulation (HG-U95E, lot 2, Day 7, AI): 2.3 | BAL (69619_at) expression change upon IL-13 stimulation (HG-U95E, lot 2, Day 7, AI): 2.4 | BCAT1 (72962_at) expression change upon IL-13 stimulation (HG-U95E, lot 2, Day 7, AI): 3.7 | CLDN1 (77660_at) expression change upon IL-13 stimulation (HG-U95E, lot 2, Day 7, AI): 5.4 | EHF (8S090_at) expression change upon IL-13 stimulation (HG-U95E, lot 2, Day 7, AI): 3 | EHF (85092_g_at) expression change upon IL-13 stimulation (HG-U95E, lot 2, Day 7, AI): 7 | EPPK1 (86507_at) expression change upon IL-13 stimulation (HG-U95E, lot 2, Day 7, AI): 3.2 | FLJ20281 (83376_at) expression change upon IL-13 stimulation (HG-U95E, lot 2, Day 7, AI): 2.6 | FLJ20989 (91420_at) expression change upon IL-13 stimulation (HG-U95E, lot 2, Day 7, AI): 2.1 | FLJ21415 (89902_at) expression change upon IL-13 stimulation (HG-U95E, lot 2, Day 7, AI): 2.7 | FLJ22833 (67329_at) expression change upon IL-13 stimulation (HG-U95E, lot 2, Day 7, AI): 4.2 | GCNT3 (77751_at) expression change upon IL-13 stimulation (HG-U95E, lot 2, Day 7, AI): 2 | KIAA1685 (83541_at) expression change upon IL-13 stimulation (HG-U95E, lot 2, Day 7, AI): 2 | MASL1 (89651_at) expression change upon IL-13 stimulation (HG-U95E, lot 2, Day 7, AI): 4.2 | MFHAS1 (87816_g_at) expression change upon IL-13 stimulation (HG-U95E, lot 2, Day 7, AI): 2.7 | RIG-1 (77749_at) expression change upon IL-13 stimulation (HG-U95E, lot 2, Day 7, AI): 2.3 | SCYA26 (90189_at) expression change upon IL-13 stimulation (HG-U95E, lot 2, Day 7, AI): 29.8 | expression level change, AQP5 (Probe ID 91275_at) (lot 1, Day 3, AI): −7.7 | expression level change, ESTs AI758223 (Probe ID 76769_at) (lot 1, Day 3, AI): −3.6 | expression level change, ESTs AI927079 (Probe ID 88716_at) (lot 1, Day 3, AI): −2.7 | expression level change, MGC14128 (Probe ID 89360_at) (lot 1, Day 3, AI): −2.1 | expression level change, PADI1 (Probe ID 81926_at) (lot 1, Day 3, AI): −6.1 | expression level change, ST6GalNAcI (Probe ID 89741_at) (lot 1, Day 3, AI): −2.5 | expression level change, AQP5 (Probe ID 91275_at) (lot 1, Day 3, IMM): −3.8 | expression level change, ESTs AI758223 (Probe ID 76769_at) (lot 1, Day 3, IMM): −2.1 | expression level change, MGC14128 (Probe ID 89360_at) (lot 1, Day 3, IMM): −2.6 | expression level change, AQP5 (Probe ID 91275_at) (lot 1, Day 7, AI): −3.7 | expression level change, CNTN1 (Probe ID 88239_i_at) (lot 1, Day 7, AI): −2 | expression level change, DKFZP434I1735 (Probe ID 77516_r_at) (lot 1, Day 7, AI): −2 | expression level change, ESTs AI758223 (Probe ID 76769_at) (lot 1, Day 7, AI): −14.8 | expression level change, ESTs AI927079 (Probe ID 88716_at) (lot 1, Day 7, AI): −12.9 | expression level change, FLJ10718 (Probe ID 69750_at) (lot 1, Day 7, AI): −3 | expression level change, LGALS1 (Probe ID 80667_f_at) (lot 1, Day 7, AI): −7.2 | expression level change, MGC14128 (Probe ID 86024_at) (lot 1, Day 7, AI): −4 | expression level change, MGC14128 (Probe ID 89360_at) (lot 1, Day 7, AI): −3.8 | expression level change, PADI1 (Probe ID 81926_at) (lot 1, Day 7, AI): −6.1 | expression level change, ST6GalNAcI (Probe ID 89741_at) (lot 1, Day 7, AI): −2.4 | expression level change, CNTN1 (Probe ID 88239_i_at) (lot 1, Day 7, IMM): −2.7 | expression level change, ESTs AI758223 (Probe ID 76769_at) (lot 1, Day 7, IMM): −15.7 | expression level change, ESTs AI927079 (Probe ID 88716_at) (lot 1, Day 7, IMM): −10.7 | expression level change, FLJ10718 (Probe ID 69750_at) (lot 1, Day 7, IMM): −4.7 | expression level change, LGALS1 (Probe ID 80667_f_at) (lot 1, Day 7, IMM): −5.2 | expression level change, MGC14128 (Probe ID 86024_at) (lot 1, Day 7, IMM): −2.9 | expression level change, MGC14128 (Probe ID 89360_at) (lot 1, Day 7, IMM): −2.9 | expression level change, PADI1 (Probe ID 81926_at) (lot 1, Day 7, IMM): −7.6 | expression level change, ST6GalNAcI (Probe ID 89741_at) (lot 1, Day 7, IMM): −4.3 | expression level change, AQP5 (Probe ID 91275_at) (lot 2, Day 3, AI): −14.3 | expression level change, CNTN1 (Probe ID 88239_i_at) (lot 2, Day 3, AI): −3.8 | expression level change, ESTs AI758223 (Probe ID 76769_at) (lot 2, Day 3, AI): −9.6 | expression level change, ESTs AI927079 (Probe ID 88716_at) (lot 2, Day 3, AI): −7 | expression level change, LGALS1 (Probe ID 80667_f_at) (lot 2, Day 3, AI): −2.5 | expression level change, MGC14128 (Probe ID 86024_at) (lot 2, Day 3, AI): −2.4 | expression level change, PADI1 (Probe ID 81926_at) (lot 2, Day 3, AI): −6.7 | expression level change, ST6GalNAcI (Probe ID 89741_at) (lot 2, Day 3, AI): −8.8 | expression level change, AQP5 (Probe ID 91275_at) (lot 2, Day 7, AI): −7.7 | expression level change, CNTN1 (Probe ID 88239_i_at) (lot 2, Day 7, AI): −3.3 | expression level change, DKFZP434I1735 (Probe ID 77516_r_at) (lot 2, Day 7, AI): −2.7 | expression level change, ESTs AI927079 (Probe ID 88716_at) (lot 2, Day 7, AI): −18.5 | expression level change, FLJ10718 (Probe ID 69750_at) (lot 2, Day 7, AI): −3.6 | expression level change, LGALS1 (Probe ID 80667_f_at) (lot 2, Day 7, AI): −8.2 | expression level change, MGC14128 (Probe ID 86024_at) (lot 2, Day 7, AI): −2.8 | expression level change, MGC14128 (Probe ID 89360_at) (lot 2, Day 7, AI): −4 | expression level change, PADI1 (Probe ID 81926_at) (lot 2, Day 7, AI): −6.8 | expression level change, ST6GalNAcI (Probe ID 89741_at) (lot 2, Day 7, AI): −8.4 | AKR1B10 (37482_at) expression change [1]: −6.5 | AKR1C3 (37399_at) expression change [1]: −3.3 | AREG (34898_at) expression change [1]: −2.3 | BDKRB2 (39310_at) expression change [1]: −2.1 | BENE (33331_at) expression change [1]: −3.7 | CTSL2 (40717_at) expression change [1]: −2.8 | DUSP1 (1005_at) expression change [1]: −2.8 | GABRE (34280_at) expression change [1]: −2 | GPNMB (38379_at) expression change [1]: −3.3 | IGFBP3 (1586_at) expression change [1]: −2.4 | IGFBP3 (37319_at) expression change [1]: −2.7 | IGFBP6 (1736_at) expression change [1]: −3.6 | IMPA2 (36496_at) expression change [1]: −2.8 | LOH11CR2A (38151_at) expression change [1]: −2.1 | MMP9 (31859_at) expression change [1]: −25.5 | MMP10 (1006_at) expression change [1]: −6.3 | MSMB (32149_at) expression change [1]: −8.6 | NDRG1 (36933_at) expression change [1]: −4.9 | NOTCH3 (38750_at) expression change [1]: −2.9 | PFTK1 (36502_at) expression change [1]: −3.9 | PSCA (33792_at) expression change [1]: −6 | RARRES1 (1042_at) expression change [1]: −3.1 | RARRES1 (33505_at) expression change [1]: −2.2 | RDC1 (34288_at) expression change [1]: −4.1 | S100A8 (41096_at) expression change [1]: −5.4 | SEC14L2 (32817_at) expression change [1]: −2.1 | SERPINB5 (862_at) expression change [1]: −2.2 | SERPINE1 (672_at) expression change [1]: −12 | SERPINE1 (38125_at) expression change [1]: −6.9 | STK39 (39120_at) expression change [1]: −3.9 | c-fos (1915_s_at) expression change [1]: −2 | c-fos (1916_s_at) expression change [1]: −2.2 | AKR1B10 (37482_at) expression change [2]: −2.8 | APM2 (32527_at) expression change [2]: −2.1 | AREG (34898_at) expression change [2]: −4.2
